Test results published in BindingDB's records for doi:10.1080/14756360400002007 (Crefsip, 2005).

How the values were obtained:
Glutamate--tRNA ligase = target: T1, Glutamate--tRNA ligase (Escherichia coli (strain K12), UniProt P04805); assay: Determination of the Inhibition Type and Constant (Ki); details: pH 7.2; 37 °C
T1 sequence (P04805 whole entry): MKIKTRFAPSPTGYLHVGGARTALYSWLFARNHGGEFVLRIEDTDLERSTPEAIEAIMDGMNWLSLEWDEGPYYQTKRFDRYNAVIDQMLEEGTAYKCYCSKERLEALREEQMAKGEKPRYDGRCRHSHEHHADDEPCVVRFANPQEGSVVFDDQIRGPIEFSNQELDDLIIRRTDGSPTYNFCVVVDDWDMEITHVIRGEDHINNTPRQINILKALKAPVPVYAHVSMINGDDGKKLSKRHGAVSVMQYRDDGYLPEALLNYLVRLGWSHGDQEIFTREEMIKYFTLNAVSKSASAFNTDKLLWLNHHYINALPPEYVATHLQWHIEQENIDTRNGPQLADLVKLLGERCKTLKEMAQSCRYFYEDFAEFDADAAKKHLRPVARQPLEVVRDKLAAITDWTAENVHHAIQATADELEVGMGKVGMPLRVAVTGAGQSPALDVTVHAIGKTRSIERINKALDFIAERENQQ
Description: (§1) The Km and Kappm for the amino acid substrate were first calculated from Lineweaver-Burk plots. The Ki values were calculated from the Kappm vs [I] plot. The Ki values for the inhibitors with respect for the amino acid substrates were determined by measuring the apparent Km for the amino acid in the presence of saturating concentrations of both ATP and tRNA, and of various fixed concentrations of the inhibitor.

[1] = target: T2, Probable glutamate--tRNA ligase, mitochondrial (Mus musculus, UniProt Q9CXJ1); assay: as above; details: pH 8; 30 °C
T2 sequence (Q9CXJ1 whole entry): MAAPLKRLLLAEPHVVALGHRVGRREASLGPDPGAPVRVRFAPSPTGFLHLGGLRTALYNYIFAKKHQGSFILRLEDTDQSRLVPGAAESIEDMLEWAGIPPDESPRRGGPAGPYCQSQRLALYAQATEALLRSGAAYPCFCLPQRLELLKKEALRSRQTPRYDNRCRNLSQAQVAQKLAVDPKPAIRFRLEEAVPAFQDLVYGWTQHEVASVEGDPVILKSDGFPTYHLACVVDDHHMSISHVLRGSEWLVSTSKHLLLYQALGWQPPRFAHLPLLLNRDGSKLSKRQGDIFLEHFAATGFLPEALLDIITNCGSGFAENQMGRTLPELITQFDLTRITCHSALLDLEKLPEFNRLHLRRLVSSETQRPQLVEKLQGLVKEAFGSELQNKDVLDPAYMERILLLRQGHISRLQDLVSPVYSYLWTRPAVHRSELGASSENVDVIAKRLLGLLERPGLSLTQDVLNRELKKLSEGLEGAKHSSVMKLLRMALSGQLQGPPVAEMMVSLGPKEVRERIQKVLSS
Description: as §1

Ki (Glutamate--tRNA ligase)	Ki [1]	Compound
15000 nM	–	Nc1ncnc2c1ncn2[C@@H]1O[C@H](COS(=O)(=O)NC(=O)[C@@H]2CCC(=O)N2)[C@@H](O)[C@H]1O [(5S)-5-{[({[(2R,3S,4R,5R)-5-(6-amino-9H-purin-9-yl)-3,4-dihydroxyoxolan-2-yl]methoxy}sulfonyl)amino]carbonyl}pyrrolidin-2-one]
2.8 nM	70 nM	Nc1ncnc2c1ncn2[C@@H]1O[C@H](COS(=O)(=O)NC(=O)[C@@H](N)CCC(=O)O)[C@@H](O)[C@H]1O [5-O-[N-(L-Glutamyl)-sulfamoyl]adenosine 5]
